One experiment concerns the target T1, BRD4(BD1) (Homo sapiens, UniProt O60885).
T1 construct: His; made in house
The experiment in a line: BRD4 Alphalisa binding assay.
Details: not given
How it is done:
IC50 Measurements for Inhibitors Using BRD4 Alphalisa Binding Assay
His/[…] epitope tagged BRD4 BD142-168 was cloned, expressed and purified to homogeneity. BRD4 binding and inhibition was assessed by monitoring the engagement of biotinylated H4-tetraacetyl peptide (Millipore #12-379) with the target using the AlphaLisa technology (Perkin-Elmer). Specifically, in a 384 well ProxiPlate BRD4(BD1) (30 nM final) was combined with peptide (200 nM final) in 40 mM HEPES (pH 7.0), 40 mM NaCl, 1 mM DTT, 0.01% (w/v) BSA, and 0.008% (w/v) Brij-35 either in the presence of DMSO (final 1.2% DMSO) or compound dilution series in DMSO. After 20 minute incubation at room temperature Alpha streptavidin donor beads and AlphaLisa anti-Flag acceptor beads were added to a final concentration of 10 ug/mL each. After three hours equilibration plates were read on an Envision instrument and IC50s calculated using a four parameter non-linear curve fit.
Background: In Alpha technology, singlet oxygen from a donor bead excites a nearby acceptor bead.
What is called IC50 is the concentration needed to halve the response being measured. In turn, `Cc1sc2c(c1C)C(c1ccc(Cl)cc1)=NC1(CC1)c1nnc(C)n1-2` [Compound 214, 4′-(4-Chlorophenyl)-2′,3′,9′-trimethylspiro[cyclopropane-1,6′-thieno[3,2-f][1,2,4]triazolo[4,3-a][1,4]diazepine]] showed an IC50 below 500 nM.

The same experiment, now with this note: BRD4(BD1) 30 nM, biotinylated H4-tetraacetyl peptide 200 nM; read-out: BRD4 Alphascreen IC50.
Take `Cc1sc2c(c1C)C(c1ccc(Cl)cc1)=NC1(CC1C)c1nnc(C)n1-2` (racemic) [Compound 215, 4′-(4-chlorophenyl)-2,2′,3′,9′-tetramethylspiro[cyclopropane-1,6′-thieno[3,2-f][1,2,4]triazolo[4,3-a][1,4]diazepine]]: the IC50 is below 500 nM.

`COC[C@@H]1C[C@]12N=C(c1ccc(Cl)cc1)c1c(sc(C)c1C)-n1c(C)nnc12` [Compound 202, (1S,2R)-4′-(4-chlorophenyl)-2-(methoxymethyl)-2′,3′,9′-trimethylspiro[cyclopropane-1,6′-thieno[3,2-f][1,2,4]triazolo[4,3-a][1,4]diazepine]]: the IC50 was below 500 nM.

For `Cc1sc2c(c1C)C(c1ccc(Cl)cc1)=N[C@]1(C[C@H]1CO)c1nnc(C)n1-2` [Compound 203, ((1S,2R)-4′-(4-chlorophenyl)-2′,3′,9′-trimethylspiro[cyclopropane-1,6′-thieno[3,2-f][1,2,4]triazolo[4,3-a][1,4]diazepin]-2-yl)methanol], the concentration for half-maximal inhibition (IC50) is below 500 nM.

For the compound `CCNC(=O)[C@@H]1C[C@]12N=C(c1ccc(Cl)cc1)c1c(sc(C)c1C)-n1c(C)nnc12` [Compound 204, (1S,2R)-4′-(4-chlorophenyl)-N-ethyl-2′,3′,9′-trimethylspiro[cyclopropane-1,6′-thieno[3,2-f][1,2,4]triazolo[4,3-a][1,4]diazepine]-2-carboxamide], the IC50 is above 1000 nM.

Take `Cc1sc2c(c1C)C(c1ccc(Cl)cc1)=N[C@]1(C[C@H]1C(N)=O)c1nnc(C)n1-2` [Compound 205, (1S,2R)-4′-(4-Chlorophenyl)-2′,3′,9′-trimethylspiro[cyclo-propane-1,6′-thieno[3,2-f][1,2,4]triazolo[4,3-a][1,4]diazepine]-2-carboxamide]: the IC50 lay within 500 to 1000 nM.

As to `Cc1sc2c(c1C)C(c1ccc(Cl)cc1)=N[C@]1(C[C@H]1CN)c1nnc(C)n1-2` [Compound 206, ((1S,2S)-4′-(4-Chlorophenyl)-2′,3′,9′-trimethylspiro[cyclo-propane-1,6′-thieno[3,2-f][1,2,4]triazolo[4,3-a][1,4]diazepin]-2-yl)methanamine], the IC50 was below 500 nM.

`CC(=O)NC[C@@H]1C[C@]12N=C(c1ccc(Cl)cc1)c1c(sc(C)c1C)-n1c(C)nnc12` [Compound 207, N-(((1S,2S)-4′-(4-Chlorophenyl)-2′,3′,9′-trimethylspiro[cyclopropane-1,6′-thieno[3,2-f][1,2,4]triazolo[4,3-a][1,4]diazepin]-2-yl)methyl)acetamide]: the IC50 was below 500 nM.

As to `CCNC[C@@H]1C[C@]12N=C(c1ccc(Cl)cc1)c1c(sc(C)c1C)-n1c(C)nnc12` [Compound 208, N-(((1S,2S)-4′-(4-Chlorophenyl)-2′,3′,9′-trimethylspiro[cyclopropane-1,6′-thieno[3,2-f][1,2,4]triazolo[4,3-a][1,4]diazepin]-2-yl)methyl)ethanamine], the IC50 was below 500 nM.

`COC[C@H]1C[C@@]12N=C(c1ccc(Cl)cc1)c1c(sc(C)c1C)-n1c(C)nnc12` [Compound 209, (1R,2S)-4′-(4-chlorophenyl)-2-(methoxymethyl)-2′,3′,9′-trimethylspiro[cyclopropane-1,6′-thieno[3,2-f][1,2,4]triazolo[4,3-a][1,4]diazepine]]: the IC50 was below 500 nM.

Consider `Cc1sc2c(c1C)C(c1ccc(Cl)cc1)=N[C@@]1(C[C@@H]1CO)c1nnc(C)n1-2` [Compound 210, ((1R,2S)-4′-(4-Chlorophenyl)-2′,3′,9′-trimethylspiro[cyclo-propane-1,6′-thieno[3,2-f][1,2,4]triazolo[4,3-a][1,4]diazepin]-2-yl)methanol], for which the IC50 was below 500 nM.

As to `CCNC(=O)[C@H]1C[C@@]12N=C(c1ccc(Cl)cc1)c1c(sc(C)c1C)-n1c(C)nnc12` [Compound 211, (1R,2S)-4′-(4-chlorophenyl)-N-ethyl-2′,3′,9′-trimethylspiro[cyclopropane-1,6′-thieno[3,2-f][1,2,4]triazolo[4,3-a][1,4]diazepine]-2-carboxamide], the IC50 is above 1000 nM.

For the compound `CCNC(=O)[C@@H]1C[C@@]12N=C(c1ccc(Cl)cc1)c1c(sc(C)c1C)-n1c(C)nnc12` [Compound 212, (1R,2R)-4′-(4-Chlorophenyl)-N-ethyl-2′,3′,9′-trimethylspiro-[cyclopropane-1,6′-thieno[3,2-f][1,2,4]triazolo[4,3-a][1,4]diazepine]-2-carboxamide], the IC50 is above 1000 nM.

Consider `Cc1nsc2c1C(c1ccc(Cl)cc1)=NC1(CC1)c1nnc(C)n1-2` [Compound 213, 4′-(4-chlorophenyl)-3′,9′-dimethylspiro[cyclopropane-1,6′-isothiazolo[4,5-f][1,2,4]triazolo[4,3-a][1,4]diazepine]], for which the IC50 was above 1000 nM.

In the case of `Cc1nnc2n1-c1ccccc1C(c1ccc(Cl)cc1)=NC21CC1` [Compound 216, 6-(4-chlorophenyl)-1-methylspiro[benzo[f][1,2,4]triazolo[4,3-a][1,4]diazepine-4,1′-cyclopropane]], the IC50 is below 500 nM.

In the case of `Cc1sc2c(c1C)C(c1ccc(Cl)cc1)=NC1(CC1)c1nncn1-2` [Compound 217, 4′-(4-Chlorophenyl)-2′,3′-dimethylspiro[cyclopropane-1,6′-thieno[3,2-f][1,2,4]triazolo[4,3-a][1,4]diazepine]], the IC50 is above 1000 nM.

As for `Cc1sc2c(c1C)C(c1ccc(Cl)cc1)=N[C@@]1(C[C@@H]1C)C(=O)N2` [Compound 218, (1R,2S)-5′-(4-chlorophenyl)-2,6′,7′-trimethylspiro[cyclopropane-1,3′-thieno[2,3-e][1,4]diazepin]-2′(1′H)-one], the IC50 is above 1000 nM.

Consider `Cc1sc2c(c1C)C(c1ccc(Cl)cc1)=N[C@@]1(C[C@@H]1C)c1nnc(C)n1-2` [Compound 219, (1R,2S)-4′-(4-chlorophenyl)-2,2′,3′,9′-tetramethylspiro-[cyclopropane-1,6′-thieno[3,2-f][1,2,4]triazolo[4,3-a][1,4]diazepine]], for which the IC50 is below 500 nM.

As for `Cc1sc2c(c1C)C(c1ccc(Cl)cc1)=N[C@]1(C[C@H]1C)c1nnc(C)n1-2` [Compound 220, (1S,2R)-4′-(4-chlorophenyl)-2,2′,3′,9′-tetramethyl-spiro[cyclopropane-1,6′-thieno[3,2-f][1,2,4]triazolo[4,3-a][1,4]diazepine]], the IC50 is below 500 nM.

For the compound `Cc1sc2c(c1C)C(c1ccc(N)cc1)=N[C@]1(C[C@H]1C)c1nnc(C)n1-2` [Compound 221, 4-((1S,2R)-2,2′,3′,9′-tetramethylspiro[cyclopropane-1,6′-thieno[3,2-f][1,2,4]triazolo[4,3-a][1,4]diazepin]-4′-yl)aniline], the IC50 was below 500 nM.

Turning to `Cc1sc2c(c1C)C(c1ccc(Cl)cc1)=N[C@]1(C[C@H]1C)c1n[nH]c(=O)n1-2` [Compound 222, (1S,2R)-4′-(4-chlorophenyl)-2,2′,3′-trimethylspiro[cyclopropane-1,6′-thieno[3,2-f][1,2,4]triazolo[4,3-a][1,4]diazepin]-9′(8′H)-one 2,2,2-trifluoroacetic acid], the IC50 was above 1000 nM.

Consider `Cc1sc2c(c1C)C(c1ccc(Cl)cc1)=NC1(CCC1)c1nnc(C)n1-2` [Compound 223, 4′-(4-chlorophenyl)-2′,3′,9′-trimethylspiro[cyclobutane-1,6′-thieno[3,2-f][1,2,4]triazolo[4,3-a][1,4]diazepine]], for which the half-maximal inhibitory concentration (IC50) is below 500 nM.

Turning to `Cc1sc2c(c1C)C(c1ccc(Cl)cc1)=NC1(CNC1)c1nnc(C)n1-2` [Compound 224, 4′-(4-chlorophenyl)-2′,3′,9′-trimethylspiro[azetidine-3,6′-thieno[3,2-f][1,2,4]triazolo[4,3-a][1,4]diazepine]], the IC50 is above 1000 nM.

For `Cc1sc2c(c1C)C(c1ccc(Cl)cc1)=NC1(COC1)c1nnc(C)n1-2` [Compound 226, 4′-(4-Chlorophenyl)-2′,3′,9′-trimethylspiro[oxetane-3,6′-thieno[3,2-f][1,2,4]triazolo[4,3-a][1,4]diazepine]], the IC50 was below 500 nM.

Turning to `Cc1noc2c1-c1ccc(Cl)cc1C(c1ccc(F)cc1)=NC21CC1` [Compound 250, 8-Chloro-6-(4-fluorophenyl)-1-methylspiro[benzo[c]isoxazolo[4,5-e]azepine-4,1′-cyclopropane]], the IC50 is above 1000 nM.

With `Cc1noc2c1-c1ccc(-c3ccc(N)nc3)cc1C(c1ccc(F)cc1)=NC21CC1` [Compound 251, 5-(6-(4-Fluorophenyl)-1-methylspiro[benzo[c]isoxazolo[4,5-e]azepine-4,1′-cyclopropan]-8-yl)pyridin-2-amine], the half-inhibitory concentration (IC50) is below 500 nM.

As to `Cc1noc2c1-c1cn(C)nc1C(c1ccc(Cl)cc1)=NC2` [Compound 265, 6-(4-chlorophenyl)-1,8-dimethyl-4,8-dihydroisoxazolo[5,4-c]pyrazolo[4,3-e]azepine], the IC50 was above 1000 nM.

Values taken from patent US9249161B2, “Bromodomain inhibitors and uses thereof” (Constellation Pharmaceuticals, Inc., priority 2010, dated 2016).
